US20130196954A1, “METHOD OF TREATING ACNE” (priority 2010, published 2013)

What was measured:
[1] = Phase 2 clinical study, safety (adverse events); assay type: in vivo, human
Description: A phase 2, multi-center, randomized, double-blind, parallel group, placebo-controlled study was conducted. The treatments were (1) 40 mg doxycycline tablet containing 30 mg IR and 10 mg DR (CD2575/101); (2) doxycycline 100 mg capsules; and (3) placebos (double dummy), which were administered orally once daily.
Patients having moderate or severe acne (25 to 75 inflammatory lesions on the face (including the nose) were subjects in the study. Total 660 subjects (220/group) were divided in a 1:1:1 randomization for the three treatments. The treatments lasted 16 weeks.
The safety studies included standard safety reporting. Adverse events of special interest included phototoxicity; pseudotumor cerebri; and pseudomembranous colitis. Vital signs were observed by the investigator at each visit. Lab tests were conducted at 0, 8 & 16 weeks.

moderate or severe acne = test: Phase 2 randomized, double-blind, placebo-controlled clinical study, efficacy; assay type: in vivo, human; conditions: ITT; for Reduction from baseline in inflammatory lesion count / Success Rate (IGA clear or almost clear): oral once daily
Description: As used herein, “success rate” means the percentage of subjects who achieve a score of “clear” or “almost clear” by Investigator's Global Assessment (IGA) (Inflammatory): A phase 2, multi-center, randomized, double-blind, parallel group, placebo-controlled study was conducted. The treatments were (1) 40 mg doxycycline tablet containing 30 mg IR and 10 mg DR (CD2575/101); (2) doxycycline 100 mg capsules; and (3) placebos (double dummy), which were administered orally once daily. Patients having moderate or severe acne (25 to 75 inflammatory lesions on the face (including the nose) were subjects in the study. Total 660 subjects (220/group) were divided in a 1:1:1 randomization for the three treatments. The treatments lasted 16 weeks. The following were measured for efficacy studies: change from baseline to week 16 (LOCF, ITT) in inflammatory lesion counts (primary endpoint); success rate at week 16 (LOCF, ITT); percent change in inflammatory lesion counts from baseline to week 16 (LOCF, ITT); percent change in total lesion counts from baseline to week 16 (LOCF, ITT); change from baseline to week 16 (LOCF, ITT) in non-inflammatory lesion counts; global assessment for inflammatory lesions of truncal acne at baseline, week 12, and week 16/ET visit, etc. The investigator evaluated the subject's acne at every study visit using the Investigator's Global Assessment (Inflammatory) scale as that described above. The IGA scale in this study focused on inflammatory lesions as the mode of study drug action in acne vulgaris is primarily anti-inflammatory. Onset of efficacy was to be determined for the change in inflammatory lesions and for the success rate, by analyzing time points earlier than week 16

[2] = N = 216 (40 mg), N = 223 (100 mg)

With `C[C@H]1c2cccc(O)c2C(=O)C2=C(O)[C@]3(O)C(=O)C(C(N)=O)=C(O)[C@@H](N(C)C)[C@@H]3[C@@H](O)[C@@H]21` [Doxycycline 100 mg, doxycycline] the “drug related AEs (nausea, vomiting & headaches)” value ([1]; 16 weeks once daily oral) was 38, the “Total Number of AE(s)” value ([1]; 16 weeks once daily oral, N = 216 (40 mg), N = 223 (100 mg)) was 50 and the “Abdominal discomfort, number of subjects” value [1, 2] was 4. The “Abdominal discomfort, percent of subjects” value [1, 2] was “(1.8%)”, the “Dizziness, number of subjects” value [1, 2] was 1 and the “Dizziness, percent of subjects” value [1, 2] was “(0.4%)”. For the same compound, the “Headache, number of subjects” value [1, 2] was 6, the “Headache, percent of subjects” value [1, 2] was “(2.7%)” and the “Nausea, number of subjects” value [1, 2] was 12. The “Nausea, percent of subjects” value [1, 2] was “(5.4%)”, the “Tinnitus, number of subjects” value [1, 2] was 0 and the “Total Number of Subjects with AE(s), number” value [1, 2] was 38. For the same compound, the “Total Number of Subjects with AE(s), percent” value [1, 2] was “(17.0%)”, the “Urticaria, number of subjects” value [1, 2] was 2 and the “Urticaria, percent of subjects” value [1, 2] was “(0.9%)”. The “Vomiting, number of subjects” value [1, 2] was 14, the “Vomiting, percent of subjects” value [1, 2] was “(6.3%)” and the “Vulvovaginal mycotic infection, number of subjects” value [1, 2] was 1. The “Vulvovaginal mycotic infection, percent of subjects” value [1, 2] was “(0.4%)”, the “Median % Change in Inflammatory Lesion Count” value (moderate or severe acne; Week 12 (LOCF)) was −46.7% and the “Median % change in Total Lesion Count” value (moderate or severe acne; Week 12 (LOCF)) was −30.6%. For the same compound, the “Reduction in inflammatory lesion count, delta vs placebo” value (moderate or severe acne; Week 12 (LOCF)) was 0.3, the “Success Rate, delta vs placebo” value (moderate or severe acne; Week 12 (LOCF)) was −1.4 and the “Reduction from baseline in inflammatory lesion count” value (moderate or severe acne; Week 12 (LOCF)) was 12.2 (0.604). For the same compound, the “Success Rate (IGA clear or almost clear)” value (moderate or severe acne; Week 12 (LOCF)) was 5.4% (0.536), the “Median % Change in Inflammatory Lesion Count” value (moderate or severe acne; Week 16 (LOCF)) was −47.3% and the “Median % change in Total Lesion Count” value (moderate or severe acne; Week 16 (LOCF)) was −35.9%. The “Reduction in inflammatory lesion count, delta vs placebo” value (moderate or severe acne; Week 16 (LOCF)) was 0.3, the “Success Rate, delta vs placebo” value (moderate or severe acne; Week 16 (LOCF)) was 6.1 and the “Reduction from baseline in inflammatory lesion count” value (moderate or severe acne; Week 16 (LOCF)) was 12.9 (0.595). The “Success Rate (IGA clear or almost clear)” value (moderate or severe acne; Week 16 (LOCF)) was 13.8% (0.035).
